Laboratory results reported in ChEMBL document CHEMBL1147337, “A new bastadin from the sponge Psammaplysilla purpurea” (J Nat Prod, 1993).
pIC50: −log10 of the molar value. Values after ≈ are worked out from the molar mass of the structure shown.

Legend:
A549 = experiment: Cytotoxicity against human A549 cells; type: functional, cell-based
Dihydrofolate reductase = target: T1, Dihydrofolate reductase (Homo sapiens, UniProt P00374); experiment: Inhibition of DHFR
T1 sequence (P00374 whole entry): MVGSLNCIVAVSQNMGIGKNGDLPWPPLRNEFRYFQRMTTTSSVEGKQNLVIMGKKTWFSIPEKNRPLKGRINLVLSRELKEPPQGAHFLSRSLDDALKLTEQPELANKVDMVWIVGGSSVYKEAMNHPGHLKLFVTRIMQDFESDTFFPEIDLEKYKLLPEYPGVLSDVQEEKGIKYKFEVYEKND

[1] = Cytotoxicity against african green monkey CV1 cells; type: cell-based; settings: Chlorocebus aethiops, CV-1
P388 = experiment: Cytotoxicity against mouse P388 cells; type: functional, cell-based
[2] = target: DNA topoisomerase 2-alpha (Homo sapiens, UniProt P11388); experiment: Inhibition of topoisomerase 2
Sequence of DNA topoisomerase 2-alpha (P11388 whole entry): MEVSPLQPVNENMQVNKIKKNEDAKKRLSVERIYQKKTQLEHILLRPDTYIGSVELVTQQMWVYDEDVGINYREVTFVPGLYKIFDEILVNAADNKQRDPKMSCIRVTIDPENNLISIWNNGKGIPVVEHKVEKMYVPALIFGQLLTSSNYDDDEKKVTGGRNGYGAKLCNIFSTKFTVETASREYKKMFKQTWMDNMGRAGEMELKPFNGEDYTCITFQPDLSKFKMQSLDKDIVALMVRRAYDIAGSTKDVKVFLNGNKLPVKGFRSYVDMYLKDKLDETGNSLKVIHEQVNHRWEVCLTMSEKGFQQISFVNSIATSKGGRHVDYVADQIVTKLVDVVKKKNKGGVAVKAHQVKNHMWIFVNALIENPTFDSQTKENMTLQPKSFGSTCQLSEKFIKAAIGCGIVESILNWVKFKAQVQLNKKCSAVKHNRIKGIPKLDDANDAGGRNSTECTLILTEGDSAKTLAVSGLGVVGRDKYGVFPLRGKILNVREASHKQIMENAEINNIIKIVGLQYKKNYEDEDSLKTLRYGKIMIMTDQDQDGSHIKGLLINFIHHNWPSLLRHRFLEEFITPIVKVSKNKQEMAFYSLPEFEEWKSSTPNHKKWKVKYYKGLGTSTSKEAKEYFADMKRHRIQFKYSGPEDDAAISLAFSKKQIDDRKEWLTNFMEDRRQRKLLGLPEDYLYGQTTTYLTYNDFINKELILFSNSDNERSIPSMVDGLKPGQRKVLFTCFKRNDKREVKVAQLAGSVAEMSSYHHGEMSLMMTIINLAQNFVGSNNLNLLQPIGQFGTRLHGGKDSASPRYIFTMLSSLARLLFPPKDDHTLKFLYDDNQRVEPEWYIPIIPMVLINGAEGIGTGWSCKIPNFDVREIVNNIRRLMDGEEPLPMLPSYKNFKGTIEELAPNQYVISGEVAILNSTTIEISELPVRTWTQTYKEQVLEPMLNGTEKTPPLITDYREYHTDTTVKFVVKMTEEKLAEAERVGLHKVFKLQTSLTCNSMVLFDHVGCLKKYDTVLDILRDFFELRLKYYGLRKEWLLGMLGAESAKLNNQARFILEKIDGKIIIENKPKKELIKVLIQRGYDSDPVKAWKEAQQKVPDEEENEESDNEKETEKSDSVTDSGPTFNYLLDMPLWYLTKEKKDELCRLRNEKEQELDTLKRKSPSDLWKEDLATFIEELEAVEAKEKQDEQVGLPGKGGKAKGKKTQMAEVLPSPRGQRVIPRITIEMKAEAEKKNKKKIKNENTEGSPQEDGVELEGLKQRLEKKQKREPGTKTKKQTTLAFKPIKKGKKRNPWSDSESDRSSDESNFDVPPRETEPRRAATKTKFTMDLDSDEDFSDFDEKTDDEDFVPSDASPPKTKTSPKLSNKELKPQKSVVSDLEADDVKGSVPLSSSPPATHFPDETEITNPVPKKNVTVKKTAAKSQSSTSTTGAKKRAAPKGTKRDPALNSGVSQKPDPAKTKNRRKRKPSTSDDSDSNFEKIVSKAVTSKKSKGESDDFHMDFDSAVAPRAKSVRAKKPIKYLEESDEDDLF

HT-29 = experiment: Cytotoxicity against human HT-29 cells; type: functional, cell-based

## O=C1N/C=C/c2cc(Br)c(c(Br)c2)Oc2cc(cc(Br)c2O)CCNC(=O)/C(=N/O)Cc2ccc(c(Br)c2)Oc2cc(cc(Br)c2O)C/C1=N\O [BASTADIN 14]
A549
  IC50: 2 µg/mL (≈ 1.97 µM)
Dihydrofolate reductase
  pIC50: 5.61
[1]
  IC50: 2.5 µg/mL (≈ 2.46 µM)
P388
  IC50: 2 µg/mL (≈ 1.97 µM)
[2]
  pIC50: 5.71
HT-29
  IC50: 2 µg/mL (≈ 1.97 µM)
